Data reported in patent publication US20250161453A1, “LIGHT-ACTIVATABLE, SUSTAINED-EXPOSURE ETHANOL INJECTION” (University of Maryland, College Park, priority 2022, published 2025).

Legend:
[1] = Stability of BPD stock solution; format: physicochemical; conditions: 5 mg BPD powder in 1 mL dimethyl sulfoxide, wrapped in aluminum foil
Procedure: To prepare the BPD stock solution, 5 mg of the BPD powder was dissolved with 1 mL of dimethyl sulfoxide in a 2 mL cryovial container. The molarity of the sample was confirmed with a microplate reader using the established molar extinction coefficient of BPD in dimethyl sulfoxide (DMSO; ˜34,895 M^−1 cm^−1 at 687 nm). The container was wrapped in aluminum foil and stored in a −20° C. freezer.

[2] = Singlet oxygen production (Singlet Oxygen Sensor Green) in phantom punch biopsies; conditions: 20 μM
Procedure: For the tumor-mimicking mechanical phantom, 5 mm-deep portions of the phantom were removed via a biopsy tool with a diameter of 6.4 mm and placed into a 96-well, clear flat-bottom microplate. Singlet oxygen production was determined using Singlet Oxygen Sensor Green (SOSG) and a microplate reader before irradiation. The SOSG fluorescence was measured with excitation/emission wavelengths of 504/525 nm. The samples were then irradiated with a 690 nm continuous-wave laser at various radiant exposures, and singlet oxygen production was measured using SOSG and the microplate reader after irradiation. The difference between the obtained SOSG fluorescence values between pre- and post-irradiance samples constituted the relative singlet oxygen production of that particular punch biopsy sample.
Table 4 details a strategy for measuring the singlet oxygen production of a sample (e.g., phantom specimen from a punch biopsy). […] 0 μM (EC-Ethanol only), phantom only, and BPD only (dissolved in DMSO) groups were included as negative controls, while the Rose Bengal group (type II photosensitizer capable of generating singlet oxygen via 525 nm light absorption) was included as a positive control. This strategy can be applied to estimate the relative production of singlet oxygen of photosensitizers in other liquid needle injections.
Upon red light (690 nm) activation of BPD-EC-EtOH, the fluorescence signal generated from BPD can be used for imaging of the depot, as shown in FIG. 6E.

Compound | stability of reconstituted stock solution (in words) [1] | Post-irradiation RFU ([2]; SOSG fluorescence 504/525 nm) [RFU] | Pre-irradiation RFU ([2]; SOSG fluorescence 504/525 nm) [RFU] | Relative singlet oxygen production (SOSG fluorescence difference) ([2]; difference post- minus pre-irradiation) [RFU]
benzoporphyrin derivative [BPD] | generally stable at −20 °C for several months | – | – | –
O=C([O-])c1c(Cl)c(Cl)c(Cl)c(Cl)c1-c1c2cc(I)c(=O)c(I)c-2oc2c(I)c([O-])c(I)cc12.[Na+].[Na+] [Rose Bengal] | – | 64703 | 18345 | 46358
